Columns and labels:
K-ras pathway = type: cell-based
Hh pathway [1] = type: cell-based
Wnt pathway = test: Wnt reporter (7×TCF/LEF-luciferase) in 3T3 cells; type: cell-based; conditions: increasing concentrations, presence or absence of Wnt3a-conditioned medium
Text: 3T3 cells were transfected with a Wnt reporter (7×TCF/LEF-luciferase) and treated with increasing concentrations of ATO in the presence or absence of Wnt3a-conditioned medium.
To further assess the specificity of the arsenic effect on Hedgehog pathway signaling, 3T3 cells were transfected with a Wnt reporter (7×TCF/LEF-luciferase) and treated with increasing concentrations of ATO in the presence or absence of Wnt3a-conditioned medium.

[2] = system: medulloblastoma from Ptch+/−p53−/− mice; test: Hh activity-induced medulloblastoma allografts in athymic nude mice; type: in vivo; conditions: daily intraperitoneal injection
Protocol: FIG. 7 is a pictorial and a graphical diagram showing that ATO inhibits growth of Hh activity-induced medulloblastoma allografts in nude mice. Primary medulloblastoma from Ptch+/−p53−/− mice were dissected and injected into athymic nude mice. The mice were injected daily with either control PBS or 3 different doses of ATO intraperitoneally.
The activity of ATO was then tested in vivo in a well-established model of a tumor that is dependent on Hh pathway activity for growth. In this model, primary medulloblastoma cells from Ptch+/−p53−/− mice were dissected and injected into athymic nude mice. The mice were then injected daily with either control PBS or 3 different doses of ATO intra-peritoneally.

Gli = test: Hh reporter in 3T3 cells cotransfected with SmoA1, Gli2 or Gli1; type: cell-based; conditions: presence or absence of ShhN
Hh pathway [3] = test: ATO combined with cyclopamine, 8×Gli-luciferase reporter in 3T3 cells; type: cell-based; conditions: cyclopamine at fixed concentrations of […] and 0.125 μM, presence of ShhN

| Molecule | K-ras pathway activity (SRE-luciferase reporter) (K-ras pathway) | Hh signaling (reporter) (Hh pathway [1]) | Wnt pathway activity (7×TCF/LEF-luciferase reporter) (Wnt pathway) | Tumor allograft growth ([2]; 3 different doses, athymic nude mice) | Tumor allograft growth at the highest concentration tested ([2]; highest concentration tested) | Hh pathway activity (8×Gli-luciferase reporter) (Hh pathway [1]; NIH3T3 cells, increasing concentrations, presence or absence of ShhN-conditioned medium) | Hh reporter activity induced by SmoA1, Gli2 or Gli1 over-expression (Gli) | Effect of ATO on Hh pathway when combined with cyclopamine (Hh pathway [3]) |
| --- | --- | --- | --- | --- | --- | --- | --- | --- |
| O=[As][O-].[Na+] [NaAsO2] | did not inhibit, and in fact stimulated the K-ras pathway | inhibits Hh signaling | – | – | – | – | – | – |
| arsenic trioxide [ATO] | – | – | does not inhibit the Wnt pathway | suppressed tumor allograft growth in a concentration dependent manner | complete growth suppression | inhibits Hh pathway in a dose-dependent manner | dramatically inhibited reporter activity | significantly improved effect of ATO at lower concentrations |

Source: US7867492B2, “Compounds for hedgehog pathway blockade in proliferative disorders, including hematopoietic malignancies” (The John Hopkins University, priority 2007, dated 2011)
